In US20040265847A1, “Method for treating Alzheimer's disease” (priority 1991, published 2004):

Assays:
[1] = test system: human brain membrane-derived APP; test: trypsin digestion of human brain membrane-derived APP, Western blot with 22C11; assay type: biochemical; conditions: summary statement
Source text: The proteolytic activity of trypsin (Boehringer, Mannheim) was studied to determine whether it was modulated by a range of doses of heparin (Sigma) and ZnCl2. […] Western blots for APP using the APP binding monoclonal antibody 22C11 were used to monitor the progression of the proteolytic reaction and to detect breakdown products.

[2] = test system: plasma APP; test: Effect of zinc loading upon human plasma APP; assay type: in vivo
Description: (§1) 100 mg elemental zinc (as sulphate, in capsules) was given orally to two individuals with Alzheimer's disease (NINCDS/ADRDC criteria with abnormal plasma APP profiles) and two age-matched controls (with normal plasma APP profiles). Zinc was continued for 7 days and morning fasting bloods collected before the commencement of zinc supplements and three weeks after ceasing the supplement. Western blots with monoclonal antibody 22C11 were carried out on 65 μg of plasma heparin-Sepharose eluate purified from the samples in the manner previously described. The results indicated an increase of 130 kDa species plasma APP relative to the other species present, in other words a shift towards the profile of APP species that is characteristic of Alzheimer's disease. The two control plasma APP profiles came to resemble Alzheimer's disease profiles, and the two Alzheimer's profiles worsened. The proportional increase in the 130 kDa species was approximately 20% per day of zinc supplementation.

[3] = test system: APP-degrading protease; test: Assay of APP-degrading protease (Zn^2+-enhanced degradation of plasma 130 kDa APP); assay type: biochemical, human; conditions: plasma APP from heparin-Sepharose eluates, 37° C.
[4] = Administration of zinc in Alzheimer's disease: neurological response; assay type: in vivo, human
Description: as §1
The subjects from Example 3 were studied.
The two AD volunteers because acutely unwell while on zinc supplementation. […] Eye movement abnormalities and general levels of self care worsened over the period of supplementation. This response was consistent with a neurotoxic response to the zinc supplementation.

[5] = target: T1, APP purified from rat brain (Rattus norvegicus, UniProt P08592); test: heparin binding to APP in a Biosensor system; conditions: summary statement, 'may increase'
T1 construct: from tissue; host or cells: rat brain
Description: The effect of Zn^2+ in modulating heparin binding to APP was also studied in a Biosensor system. […] This effect was most pronounced and most specific for Zn^2+, as opposed to the absence of divalent cations or the presence of Ca^2+, Mg^2+ or Co^2+, and was most evident when the heparin:APP ratio was low. […] Zn^2+ at 50 nM promoted a =170% increase in heparin binding, the effect saturating at 70 μM.

[6] = test system: PC12 cells; test: Effect of extracellular APP on zinc uptake by PC12 cells; assay type: cell-based; conditions: 10 nM APP, within an hour (=4% in the absence of APP)
Description: 10^6 PC12 cells were plated for 24 hr in the presence of Dulbecco's modified Eagle's medium (DMEM, N2) supplemented with 8% fetal calf serum (FCS). The medium was then removed and replaced with DMEM with no FCS and incubated for a further 24 hr. The cells were then washed (×2 with DMEM) and incubated with DMEM supplemented with 10 nM 130/110 kDa purified brain membrane-associated APP carrying 20 000 CPM ^65Zn prepared as in FIG. 1 above. Following varying periods of incubation, the cells were harvested, washed, exposed to Pronase digestion to remove surface proteins and then lysed in scintillant and assayed in a beta-counter.

T1 sequence (P08592 18-770): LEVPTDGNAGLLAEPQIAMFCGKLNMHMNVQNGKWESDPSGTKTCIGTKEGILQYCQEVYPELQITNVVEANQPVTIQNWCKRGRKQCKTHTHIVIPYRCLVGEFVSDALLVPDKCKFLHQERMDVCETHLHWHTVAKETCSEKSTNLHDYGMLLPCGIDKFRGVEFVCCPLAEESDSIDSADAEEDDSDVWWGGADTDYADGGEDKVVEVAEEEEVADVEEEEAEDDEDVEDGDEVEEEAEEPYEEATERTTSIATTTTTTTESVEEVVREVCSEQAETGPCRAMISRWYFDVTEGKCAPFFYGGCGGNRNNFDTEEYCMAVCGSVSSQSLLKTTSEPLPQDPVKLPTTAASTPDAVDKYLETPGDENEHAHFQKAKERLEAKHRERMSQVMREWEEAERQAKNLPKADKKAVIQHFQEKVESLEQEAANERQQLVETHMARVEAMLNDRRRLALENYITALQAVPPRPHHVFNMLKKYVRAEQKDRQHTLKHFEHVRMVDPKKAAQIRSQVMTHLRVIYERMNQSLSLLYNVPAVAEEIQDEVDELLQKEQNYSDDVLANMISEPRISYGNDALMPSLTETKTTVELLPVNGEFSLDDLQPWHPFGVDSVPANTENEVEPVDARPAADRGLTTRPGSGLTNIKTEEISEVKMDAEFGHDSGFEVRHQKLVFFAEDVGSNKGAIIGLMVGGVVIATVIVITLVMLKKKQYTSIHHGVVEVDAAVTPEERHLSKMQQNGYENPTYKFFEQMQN

Molecule	zinc concentration at which the protective effects of heparin are abolished [1]	proportional increase in the 130 kDa species of plasma APP ([2]; 100 mg elemental zinc orally for 7 days, AD and age-matched controls)	persistence of changes in plasma APP profile ([2]; elderly control, four-fold higher dose over three days)	zinc concentration required to stimulate proteolysis [3] [μm]	return of cognitive function to previous levels after ceasing supplementation ([4]; AD volunteers)	eye movement abnormalities and general levels of self care ([4]; AD volunteers, over the period of supplementation)	mini-mental state examination scores ([4]; Alzheimer's disease volunteers on oral zinc supplementation)	ill effects in healthy volunteers ([4]; healthy volunteers on zinc supplementation)	increase of APP affinity for heparin [5] [fold]	^65Zn counts internalized [6] [%]
[Zn] [zinc]	above 1 μm	approximately 20 % per day	persisted for three days after ceasing supplementation	20	within two weeks	worsened	deteriorating from moderately demented levels to unrecordable	no ill effects	5 to 10	
APP: 130/110 kDa purified brain membrane-associated amyloid precursor protein carrying ^65Zn										10
